# Test results published in US4900815A, “Sulfated polysaccharide DS4152” (Daiichi Seiyaku Co., Ltd., priority 1986, dated 1990).
# Several values for one entry are separate records, joined by “and”; a condition that tells them apart may be missing. Equal entries are not always repeated. Structures can show the parent of a compound that is named as a salt.
# Tests used:
# [1] = system: angiogenesis of the chick CAM; assay: CAM angiogenesis inhibition, various steroids alone or with DS4152; format: in vivo; settings: for degree of increase: ID50 alone vs. in the presence of 10 ng of DS4152; for ID50, used in combination with DS4152: in the presence of 10 ng of DS4152; for ID50, alone: steroid alone
# [2] = system: CAM vascularization; assay: Antiangiogenic Effects (Ex Vivo) of steroids with or without DS4152; design: species or system chick (blood from male ICR mice)
# Procedure: (§1) Male ICR mice were orally administered with a solution of DS4152 dissolved in physiological saline. A saline suspension of a steroid was administered orally or intramuscularly, either in combination with DS4152 or alone. Blood samples collected after 6 hours were prevented from coagulation with a 0.313% aqueous solution of sodium citrate. Each blood sample was added to the 5 day CAM in the same manner as in the direct method. The inhibitory effects were judged after two days. Results were expressed by inhibition ratios (%) of CAM vascularization of each group to that of control group with a blood sample collected from the mice with saline. (Table 11).
# [3] = system: CAM vascularization of chick embryos; assay: CAM Angiogenesis Inhibition Test (Direct Method), combination with cortisone acetate; format: in vivo; settings: 0.5 μg per embryo, alone
# Procedure: (§2) Using chick embryos, a test was carried out in accordance with the following method, which was a partial modification of the Taylor-Folkman'smethod Nature, 297, 307 (1982)].
# (§3) Either DS4152 or heparin dissolved in physiological saline was added to the CAM of each 4-5 day old fertilized chicken 1 egg (species: NORIN CROSS) and then the eggs were incubated at 37° C.
# (§4) Two days after the addition of the agent, the degree of the CAM vascularization was compared with that of a control to which physiological saline was only added. The 50% vascularization inhibition dose (ID50) was calculated by the probit method.
# In the same manner as in Example 2, combination effects of a steroid and DS4152 were examined. […] The activities of DF4639 and H Fraction were also investigated in the comparison with that of DS4152.
# [4] = system: Sarcoma 180 (S180); assay: Antitumor Test, Sarcoma 180, DS4152 and cortisone acetate; format: in vivo, mouse (male ICR)
# Procedure: Male ICR mice (5 weeks old) were each inoculated subcutaneously with 1×10^6 cells of Sarcoma 180 (S180). From the 3rd day, a saline suspension of cortisone acetate was administered at a dose of 250 mg/kg/day for 3 days and then at a dose of 100 mg/kg/day for 1 day.
# DS4152 was dissolved in physiological saline and administered at a dose of 0.61 or 6.1 mg/mouse subcutaneously or orally once a day for 4 days. On the 7th day after the inoculation, the mice were sacrificed to compare their tumor weights with those of the control mice.
# [5] = system: vascularization in chorioallantoic membrane (CAM) of chick embryo, rabbit cornea and hamster cheek pouches; settings: cited from earlier work
# [6] = system: Sarcoma 180 (S180); assay: Antitumor Test, S180, tamoxifen citrate with DS4152 or heparins; format: in vivo, mouse (male ICR)
# Procedure: (§5) C3H/He male mice (5 weeks old) were each inoculated subcutaneously with 4×10^6 cells of mouse mammary carcinoma MM46. Mice were randomized after measuring the diameters of the resultant tumors on the 7th day. In addition, male ICR mice (5 weeks old) were each inoculated subcutaneously with 1×10^6 cells of Sarcoma 180 (S180). On the 3rd days, the mice were randomized. A saline suspension of tamoxifen citrate was administered once a day for 4 days to the MM46-bearing mice on the 7th day after inoculation and to the S180-bearing mice on the 3rd day after inoculation. DS4152 and heparins were individually dissolved in physiological saline and administered either orally or subcutaneously once a day for 4 days at a dose of 30 mg/kg/day or 300 mg/kg/day. On the 5th day after the beginning of the administration, the animals were sacrificed. The tumor weights were compared with those of the control mice administered only with physiological saline (Table 15).
# [7] = system: CAM angiogenesis; assay: CAM Angiogenesis Inhibition Test (Direct Method), DS4152 and heparins with tamoxifen citrate; format: in vivo, chick; settings: for 50% vascularization inhibition dose: with tamoxifen citrate 1 μg
# Procedure: as §2, §3, §4
# (§6) A test was conducted in the same manner as in Example 2. Antiestrogens were separately dissolved or suspended in physiological saline and were added either alone or together with DS4152. The eggs with the agents were incubated at 37° C. Two days after the addition of the agents, the degrees of development of CAM vessels were individually compared with that of a control to which physiological saline was only added.
# [8] = system: CAM vascularization of chick embryos; assay: CAM Angiogenesis Inhibition Test (Direct Method); format: in vivo, chick (NORIN CROSS); settings: even at 100 μg
# Procedure: as §2, §3, §4
# [9] = system: CAM angiogenesis; assay: CAM Angiogenesis Inhibition Test (Direct Method), antiestrogens with or without DS4152; format: in vivo, chick
# Procedure: as §2, §3, §4, §6
# [10] = system: breast cancer; settings: Oncologia, 10, 72 (1984); cited from earlier work
# [11] = system: mouse mammary carcinoma MM46; assay: Antitumor Test, MM46, tamoxifen citrate with DS4152; format: in vivo, mouse (male C3H/He)
# Procedure: as §5
# [12] = system: CAM vascularization; assay: Antiangiogenic Effects (Ex Vivo) of tamoxifen with or without DS4152; design: species or system chick (blood from mice); settings: for Inhibition rate of angiogenesis: tamoxifen citrate 100 mg/kg s.c.
# Procedure: as §1
# In the same manner as in Example 8, antiangiogenic effects of tamoxifen were examined with or without DS4152.
# [13] = steroid p.o. 5 mg/kg, DS4152 30 mg/kg p.o.
# [14] = cortisone acetate alone, 250 then 100 mg/kg/day
# [15] = 300 mg/kg oral + tamoxifen citrate 100 mg/kg s.c.
# [16] = 300 mg/kg oral + tamoxifen citrate 100 mg/kg s.c., p < 0.05
# [17] = antiestrogen 1 μg, DS4152 0.01 μg
# [18] = antiestrogen 10 μg, DS4152 0 μg
# [19] = antiestrogen 10 μg, DS4152 0.01 μg
# [20] = tamoxifen citrate 100 mg/kg s.c. alone
molecule,measurement,setting,value
CC(=O)[C@H]1CC[C@H]2[C@@H]3CCC4=CC(=O)CC[C@]4(C)[C@H]3CC[C@]12C [Progesterone],degree of increase,[1],2.1 times
same,"ID50, used in combination with DS4152",[1],0.49 μg/embryo
same,"ID50, alone",[1],1.02 μg/embryo
C[C@]12C[C@H]3S[C@H]3C[C@@H]1CC[C@@H]1[C@@H]2CC[C@]2(C)[C@@H](O)CC[C@@H]12 [Epithiostanol],Inhibition rate of angiogenesis,"[2]; steroid i.m. 5 mg/kg, DS4152 0",4.0%
same,Inhibition rate of angiogenesis,"[2]; steroid i.m. 5 mg/kg, DS4152 30 mg/kg p.o.",5.2%
same,Inhibition rate of angiogenesis,"[2]; steroid i.m. 50 mg/kg, DS4152 0",13.4%
same,Inhibition rate of angiogenesis,"[2]; steroid i.m. 50 mg/kg, DS4152 30 mg/kg p.o.",23.4%
same,Inhibition rate of angiogenesis,"[2]; steroid i.m. 100 mg/kg, DS4152 0",24.2%
same,Inhibition rate of angiogenesis,"[2]; steroid i.m. 100 mg/kg, DS4152 30 mg/kg p.o.",37.6%
C[C@]12CC[C@@H](O)C[C@H]1CC[C@@H]1[C@@H]2CC[C@@]2(C)[C@H]1CC[C@]2(O)C(=O)CO [Tetrahydro S],Inhibition rate of angiogenesis,"[2]; steroid p.o. 1 mg/kg, DS4152 0",-2.6%
same,Inhibition rate of angiogenesis,"[2]; steroid p.o. 1 mg/kg, DS4152 30 mg/kg p.o.",71.7%
same,Inhibition rate of angiogenesis,"[2]; steroid p.o. 5 mg/kg, DS4152 0",-17.3%
same,Inhibition rate of angiogenesis,[2]; [13],80.7%
same,degree of increase,[1],100.0 times
same,"ID50, used in combination with DS4152",[1],0.01 μg/embryo
same,"ID50, alone",[1],1.00 μg/embryo
CC(=O)OCC(=O)[C@@]1(O)CC[C@H]2[C@@H]3CCC4=CC(=O)CC[C@]4(C)[C@H]3C(=O)C[C@@]21C [Cortisone acetate],Inhibition rate of angiogenesis,"[2]; steroid p.o. 5 mg/kg, DS4152 0",7.7%
same,Inhibition rate of angiogenesis,[2]; [13],75.1%
same,influence on vascularization,[3],not to give any influence to the vascularization
same,T/C,[4]; [14],94.2%
same,"Tumor weight, mean ± standard error",[4]; [14],0.340 ± 0.162
same,tumor weight compared with saline group,[4]; cortisone acetate only,not different
same,degree of increase,[1],7.1 times
same,"ID50, used in combination with DS4152",[1],0.17 μg/embryo
same,"ID50, alone",[1],1.20 μg/embryo
C[C@@H]1C[C@H]2[C@@H]3CCC4=CC(=O)C=C[C@]4(C)[C@@]3(F)[C@@H](O)C[C@]2(C)[C@@]1(O)C(=O)CO [dexamethasone],suppression of experimentally induced vascularization,[5],effective
heparin,T/C,[6]; [15],66%
same,"Tumor weight, mean ± S.D.",[6]; [16],203 ± 13 mg
same,50% vascularization inhibition dose,[7],3.43 µg
same,effect on CAM vascularization,[8],no effect
low molecular weight heparin,T/C,[6]; [15],66%
same,"Tumor weight, mean ± S.D.",[6]; [16],202 ± 22 mg
same,50% vascularization inhibition dose,[7],1.37 µg
C[C@H]1C[C@@H]2[C@H]([C@@H](O)C[C@@]3(C)[C@H]2CC[C@]3(O)C(=O)CO)[C@@]2(C)C=CC(=O)C=C12 [6α-Methylprednisolone],degree of increase,[1],38.3 times
same,"ID50, used in combination with DS4152",[1],0.03 μg/embryo
same,"ID50, alone",[1],1.15 μg/embryo
same,suppression of experimentally induced vascularization,[5],effective
CCN(CC)CCOc1ccc(C(=C(Cl)c2ccccc2)c2ccccc2)cc1 [Clomiphene citrate],percent inhibition of CAM vascularization,"[9]; antiestrogen 1 μg, DS4152 0 μg",-3.9%
same,percent inhibition of CAM vascularization,[9]; [17],32.6%
same,percent inhibition of CAM vascularization,[9]; [18],-11.4%
same,percent inhibition of CAM vascularization,[9]; [19],42.0%
C[C@]12CCC(=O)C=C1CC[C@@H]1[C@@H]2[C@@H](O)C[C@@]2(C)[C@H]1CC[C@]2(O)C(=O)CO [Hydrocortisone],degree of increase,[1],6.9 times
same,"ID50, used in combination with DS4152",[1],0.16 μg/embryo
same,"ID50, alone",[1],1.10 μg/embryo
C[C@]12CC[C@@H]3c4ccc(O)cc4CC[C@H]3[C@@H]1CC[C@@H]2O [17β-Estradiol],degree of increase,[1],7.0 times
same,"ID50, used in combination with DS4152",[1],0.28 μg/embryo
same,"ID50, alone",[1],1.96 μg/embryo
C[C@H]1C[C@H]2[C@@H]3CCC4=CC(=O)C=C[C@]4(C)[C@@]3(F)[C@@H](O)C[C@]2(C)[C@@]1(O)C(=O)CO [Betamethasone],degree of increase,[1],16.0 times
same,"ID50, used in combination with DS4152",[1],0.05 μg/embryo
same,"ID50, alone",[1],0.80 μg/embryo
C[C@]1(O)CC[C@H]2[C@@H]3CCC4=CC(=O)CC[C@]4(C)[C@@]3(F)[C@@H](O)C[C@@]21C [Fluoxymesterone],effectivity (anti-breast cancer),[10],20-30%
same,degree of increase,[1],10.3 times
same,"ID50, used in combination with DS4152",[1],0.12 μg/embryo
same,"ID50, alone",[1],1.24 μg/embryo
COc1ccc2c(c1)CCC(c1ccccc1)=C2c1ccc(OCCN2CCCC2)cc1 [Nafoxidine chloride],percent inhibition of CAM vascularization,"[9]; antiestrogen 1 μg, DS4152 0 μg",-4.3%
same,percent inhibition of CAM vascularization,[9]; [17],23.1%
same,percent inhibition of CAM vascularization,[9]; [18],-3.2%
same,percent inhibition of CAM vascularization,[9]; [19],31.6%
CC/C(=C(\c1ccccc1)c1ccc(OCCN(C)C)cc1)c1ccccc1 [Tamoxifen citrate],effect on growth of sarcoma S180,[6]; administered alone,did not affect the growth
same,T/C,[6]; [20],97%
same,"Tumor weight, mean ± S.D.",[6]; [20],298 ± 31 mg
same,effect on vascularization,"[7]; 1 μg, alone",too little to affect the vascularization
same,effect on growth of mammary carcinoma MM46,[11]; single administration (alone),inhibited
same,T/C,[11]; [20],6.6%
same,"Tumor weight, mean ± S.D.","[11]; tamoxifen citrate 100 mg/kg s.c. alone, p < 0.05",273 ± 27 mg
same,Inhibition rate of angiogenesis,[12]; DS4152 0,-6.1% and -11.0%
same,Inhibition rate of angiogenesis,[12]; DS4152 30 mg/kg oral,40.0%
same,Inhibition rate of angiogenesis,[12]; DS4152 30 mg/kg subcutaneous,61.2%
same,influence on vascularization of CAM,[12]; tamoxifen citrate only,no influence
same,inhibition of CAM vascularization,[12]; tamoxifen with subcutaneous or oral DS4152 (30 mg/kg),inhibited markedly the CAM vascularization
same,percent inhibition of CAM vascularization,"[9]; antiestrogen 1 μg, DS4152 0 μg",-0.4%
same,percent inhibition of CAM vascularization,[9]; [17],56.2%
same,percent inhibition of CAM vascularization,[9]; [18],2.9%
same,percent inhibition of CAM vascularization,[9]; [19],70.5%
C[C@]12C=CC(=O)C=C1CC[C@@H]1[C@@H]2[C@@H](O)C[C@@]2(C)[C@H]1CC[C@]2(O)C(=O)CO [Prednisolone],degree of increase,[1],16.3 times
same,"ID50, used in combination with DS4152",[1],0.08 μg/embryo
same,"ID50, alone",[1],1.30 μg/embryo
same,suppression of experimentally induced vascularization,[5],effective
CC(=O)O[C@]1(C(C)=O)CC[C@H]2[C@@H]3C[C@H](C)C4=CC(=O)CC[C@]4(C)[C@H]3CC[C@@]21C [Medroxyprogesterone acetate],degree of increase,[1],2.7 times
same,"ID50, used in combination with DS4152",[1],0.42 μg/embryo
same,"ID50, alone",[1],1.12 μg/embryo
CCC(=O)O[C@H]1CC[C@H]2[C@@H]3CCC4=CC(=O)CC[C@]4(C)[C@H]3CC[C@]12C [testosterone propionate],effectivity (anti-breast cancer),[10],20-30%
C[C@@]12CCC[C@H]1[C@@H]1CC[C@H]3CCCC[C@]3(C)[C@H]1CC2 [5α-Androstane],degree of increase,[1],8.0 times
same,"ID50, used in combination with DS4152",[1],0.29 μg/embryo
same,"ID50, alone",[1],2.32 μg/embryo
